Data reported in US6518268B1, “Telomerase inhibitors and methods of their use” (Geron Corporation, priority 1999, dated 2003).
Each block holds one molecule with its values, some of them ahead of it.

Assays:
[1] = biological target: T1, telomerase in human renal carcinoma cell line ACHN (Homo sapiens, UniProt O14746); test: Telomerase activity in extract of agent-treated ACHN cells (TRAP assay); assay type: cell-based; details: contact 3 days
T1 construct: human renal carcinoma cell line ACHN for 3 days, and then a cell extract was prepared; endogenous in cells; host or cells: ACHN human renal carcinoma cells; CHAPS extract after 3 days of treatment
T1 sequence (O14746 whole entry): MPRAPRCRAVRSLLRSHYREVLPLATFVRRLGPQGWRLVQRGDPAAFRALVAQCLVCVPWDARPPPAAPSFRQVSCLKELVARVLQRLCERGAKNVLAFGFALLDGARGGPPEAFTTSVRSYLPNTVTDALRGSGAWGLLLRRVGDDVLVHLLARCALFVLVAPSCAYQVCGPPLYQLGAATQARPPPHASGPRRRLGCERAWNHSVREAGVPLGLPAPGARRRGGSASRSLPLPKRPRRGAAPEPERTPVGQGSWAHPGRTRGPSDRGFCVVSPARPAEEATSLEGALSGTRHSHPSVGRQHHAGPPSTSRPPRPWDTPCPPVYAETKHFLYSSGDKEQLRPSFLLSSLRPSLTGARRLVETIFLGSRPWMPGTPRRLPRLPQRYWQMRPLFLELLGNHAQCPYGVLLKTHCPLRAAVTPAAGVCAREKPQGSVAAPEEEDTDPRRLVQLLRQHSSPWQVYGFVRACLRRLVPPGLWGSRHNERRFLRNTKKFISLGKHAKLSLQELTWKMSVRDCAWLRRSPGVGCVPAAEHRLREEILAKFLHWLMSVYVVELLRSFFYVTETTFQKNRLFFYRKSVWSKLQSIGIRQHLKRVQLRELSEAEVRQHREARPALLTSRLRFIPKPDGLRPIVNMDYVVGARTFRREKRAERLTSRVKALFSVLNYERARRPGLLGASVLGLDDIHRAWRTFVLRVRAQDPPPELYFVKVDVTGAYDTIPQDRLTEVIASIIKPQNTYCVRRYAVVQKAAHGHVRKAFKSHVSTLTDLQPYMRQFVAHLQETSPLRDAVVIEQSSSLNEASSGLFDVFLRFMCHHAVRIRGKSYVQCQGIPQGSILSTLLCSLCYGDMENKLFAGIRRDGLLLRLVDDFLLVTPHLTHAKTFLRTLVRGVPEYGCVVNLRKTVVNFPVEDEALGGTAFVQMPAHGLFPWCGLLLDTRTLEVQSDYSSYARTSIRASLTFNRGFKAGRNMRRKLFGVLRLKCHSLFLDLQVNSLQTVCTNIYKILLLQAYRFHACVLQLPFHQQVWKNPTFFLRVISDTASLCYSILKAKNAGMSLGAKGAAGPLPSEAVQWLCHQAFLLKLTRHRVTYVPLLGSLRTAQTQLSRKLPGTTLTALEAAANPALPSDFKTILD
T1 sequence (O60832 whole entry partner): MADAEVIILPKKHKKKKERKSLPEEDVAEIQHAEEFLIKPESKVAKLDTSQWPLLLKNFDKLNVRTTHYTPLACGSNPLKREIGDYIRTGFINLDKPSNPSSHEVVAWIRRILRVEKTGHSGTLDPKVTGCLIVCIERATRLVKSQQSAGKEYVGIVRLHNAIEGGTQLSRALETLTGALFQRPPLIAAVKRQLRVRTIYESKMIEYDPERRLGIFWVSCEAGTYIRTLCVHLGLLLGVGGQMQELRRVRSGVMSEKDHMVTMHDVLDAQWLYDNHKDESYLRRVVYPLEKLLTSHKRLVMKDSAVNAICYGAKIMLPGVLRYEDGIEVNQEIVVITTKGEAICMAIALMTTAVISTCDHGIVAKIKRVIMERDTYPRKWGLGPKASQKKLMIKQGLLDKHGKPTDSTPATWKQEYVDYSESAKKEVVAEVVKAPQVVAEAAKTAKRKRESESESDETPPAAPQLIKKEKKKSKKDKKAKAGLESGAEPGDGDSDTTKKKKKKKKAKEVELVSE
T1 sequence (Q9NPE3 whole entry partner): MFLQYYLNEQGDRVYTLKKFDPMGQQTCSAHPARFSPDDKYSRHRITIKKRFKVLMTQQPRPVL
T1 sequence (Q9NX24 whole entry partner): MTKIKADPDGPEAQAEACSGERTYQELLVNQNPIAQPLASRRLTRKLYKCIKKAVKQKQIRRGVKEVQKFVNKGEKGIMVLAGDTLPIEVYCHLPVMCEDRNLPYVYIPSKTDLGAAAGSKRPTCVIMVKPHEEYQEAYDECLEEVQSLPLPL
T1 sequence (Q9NY12 whole entry partner): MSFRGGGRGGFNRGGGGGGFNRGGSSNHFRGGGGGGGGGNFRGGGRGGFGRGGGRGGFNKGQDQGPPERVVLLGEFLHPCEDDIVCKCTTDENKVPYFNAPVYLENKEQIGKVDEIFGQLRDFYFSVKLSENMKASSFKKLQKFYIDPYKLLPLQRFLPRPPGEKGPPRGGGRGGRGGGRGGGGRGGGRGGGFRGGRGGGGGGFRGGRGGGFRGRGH
Experimental: That is, a cell extract was prepared using a buffer solution containing 0.5% CHAPS. Using the extract, TRAP (Telomeric Repeat Amplification Protocol) assay was carried out in vitro (TRAPEZE™ ELISA Telomerase Detection Kit, manufactured by Intergen). The ratio (%) of the enzyme activity in the extract from agent-treated cells to the enzyme activity in the extract from agent-untreated cells was calculated.

[2] = biological target: T2, partially purified telomerase from a nuclear extract of HEK293 cells (Homo sapiens, UniProt O14746); test: In vitro telomerase inhibition, membrane hybridization method (U.S. Pat. No. 5,760,062); assay type: biochemical; details: for residual activity of in vitro telomerase activity (in parenthesis): in the presence of the compound at a concentration of 10 μm; for IC50: partially purified telomerase from nuclear extract of HEK293 cells
T2 construct: partially purified telomerase from a nuclear extract of HEK293 cells; endogenous in cells; host or cells: HEK293 cells, nuclear extract, partially purified
T2 sequence (O14746 whole entry): as the sequence (O14746 whole entry) above
T2 sequence (O60832 whole entry partner): as the sequence (O60832 whole entry partner) above
T2 sequence (Q9NPE3 whole entry partner): as the sequence (Q9NPE3 whole entry partner) above
T2 sequence (Q9NX24 whole entry partner): as the sequence (Q9NX24 whole entry partner) above
T2 sequence (Q9NY12 whole entry partner): as the sequence (Q9NY12 whole entry partner) above
Experimental: Alternatively, telomerase inhibitory activity of the compounds was measured in accordance with a known method (U.S. Pat. No. 5,760,062). That is, a dimethyl sulfoxide (DMSO) solution of each agent was mixed with partially purified telomerase from a nuclear extract of HEK293 cells and incubated in the presence of an oligodeoxynucleotide to be used as the substrate and deoxynucleotide triphosphate. The obtained reacted product (DNA having a telomere sequence) was adsorbed on a membrane, and hybridization was carried out using a labeled oligonucleotide probe having a sequence complementary to the telomere sequence. The inhibition ratio was calculated based on the ratio of the signal of label on the membrane in the presence of the agent to the signal of label in the absence of the agent (control). Also, concentration of each agent which inhibits 50% of the enzyme activity based on the control was used as IC50.

[3] = concentration 10 μM, read-out: Residual Enzyme Activity (%)
[4] = concentration 30 μM, read-out: Residual Enzyme Activity (%)

Structure (SMILES): Cc1ccc(S(=O)(=O)c2ccc(C=C3SC(=O)NC3=O)cc2[N+](=O)[O-])cc1 [Compound 83]
Residual Enzyme Activity (%) ([1]; concentration 10 μM): 32% | residual activity of in vitro telomerase activity (in parenthesis) [2]: (58%)

Structure (SMILES): Cc1ccc([S+]([O-])c2ccc(C=C3SC(=O)NC3=O)cc2Cl)cc1 (centres unmarked) [Compound 141]
Residual Enzyme Activity (%) ([1]; concentration 30 μM): 26% | residual activity of in vitro telomerase activity (in parenthesis) [2]: (64%)

Structure (SMILES): O=C1NC(=O)C(=Cc2cc([N+](=O)[O-])ccc2OCc2ccccc2)S1 [Compound 16]
Residual Enzyme Activity (%) ([1]; concentration 100 μM): 0% | IC50 [2]: 26 µM

Structure (SMILES): Cc1ccc([S+]([O-])c2ccc([N+](=O)[O-])cc2C=C2SC(=O)NC2=O)cc1 (centres unmarked) [Compound 4]
Residual Enzyme Activity (%) ([1]; concentration 10 μM): 16% | IC50 [2]: 30 µM

Structure (SMILES): Cc1ccc([S+]([O-])c2ccc(C=C3SC(=O)NC3=O)cc2Br)cc1 (centres unmarked) [Compound 143]
Residual Enzyme Activity (%) ([1]; concentration 30 μM): 36% | residual activity of in vitro telomerase activity (in parenthesis) [2]: (62%)

Structure (SMILES): O=C1NC(=O)C(=Cc2cc([N+](=O)[O-])ccc2[S+]([O-])c2cccc(Cl)c2)S1 (centres unmarked) [Compound 134]
Residual Enzyme Activity (%) ([1]; concentration 10 μM): 4% | residual activity of in vitro telomerase activity (in parenthesis) [2]: (59%)

Structure (SMILES): Cc1ccc(Sc2ccc([N+](=O)[O-])cc2C=C2SC(=O)NC2=O)cc1 [Compound 1]
Residual Enzyme Activity (%) ([1]; concentration 30 μM): 11% | IC50 [2]: 21 µM

Structure (SMILES): Cc1ccc(S(=O)(=O)c2ccc([N+](=O)[O-])cc2C=C2SC(=O)NC2=O)cc1 [Compound 5]
Residual Enzyme Activity (%) ([1]; concentration 10 μM): 16% | IC50 [2]: 23 µM

Structure (SMILES): O=C1NC(=O)C(=Cc2cc([N+](=O)[O-])ccc2[S+]([O-])c2ccncc2)S1 (centres unmarked) [Compound 120]
Residual Enzyme Activity (%) ([1]; concentration 10 μM): 40% | IC50 [2]: 9.3 µM

Structure (SMILES): Cc1ccc(Sc2ccc(-c3ccccn3)cc2C=C2SC(=O)NC2=O)cc1 [Compound 89]
Residual Enzyme Activity (%) ([1]; concentration 30 μM): 2% | residual activity of in vitro telomerase activity (in parenthesis) [2]: (56%)

Structure (SMILES): O=C1NC(=O)C(=Cc2cc(C(=O)N3CCOCC3)sc2Sc2ccc(Cl)cc2)S1 [Compound 57]
remaining activity at 30 µM [1, 4]: 24% | IC50 [2]: 54 µM

Structure (SMILES): Cc1ccc([S+]([O-])c2ccc(C=C3SC(=O)NC3=O)cc2[N+](=O)[O-])cc1 (centres unmarked) [Compound 82]
Residual Enzyme Activity (%) ([1]; concentration 3 μM): 23% | residual activity of in vitro telomerase activity (in parenthesis) [2]: (51%)

Structure (SMILES): Cc1ccc([S+]([O-])c2ccc(C(F)(F)F)cc2C=C2SC(=O)NC2=O)cc1 (centres unmarked) [Compound 113]
Residual Enzyme Activity (%) ([1]; concentration 30 μM): 37% | residual activity of in vitro telomerase activity (in parenthesis) [2]: (68%)

The remaining molecules from weak to strong by IC50 [2], led by results:

remaining activity at 10 µM [1, 3]: 11% | IC50 [2]: 9.1 µM
Structure (SMILES): CCc1ccc([S+]([O-])c2ccc([N+](=O)[O-])cc2/C=C2\SC(=O)NC2=O)cc1 (centres unmarked) [Compound 133]

remaining activity at 10 µM [1, 3]: 44% | IC50 [2]: 8 µM
Structure (SMILES): O=C1NC(=O)C(=Cc2cc([N+](=O)[O-])ccc2S(=O)(=O)C2CCCCC2)S1 [Compound 86]

remaining activity at 30 µM [1, 4]: 26% | IC50 [2]: 7.9 µM
Structure (SMILES): CN1CCN(C(=O)c2cc(C=C3SC(=O)NC3=O)c(Sc3ccc(Cl)cc3)s2)CC1 [Compound 56]

remaining activity at 30 µM [1, 4]: 50% | IC50 [2]: 7.4 µM
Structure (SMILES): CCN(CC)C(=O)c1cc(C=C2SC(=O)NC2=O)c(Sc2ccc(Cl)cc2)s1 [Compound 54]

Residual Enzyme Activity (%) ([1]; concentration 30 μM): 39% | IC50 [2]: 6 µM
Structure (SMILES): O=C1NC(=S)SC1=Cc1cc([N+](=O)[O-])ccc1Sc1ccc(Cl)cc1 [Compound 37]

Residual Enzyme Activity (%) ([1]; concentration 100 μM): 26% | IC50 [2]: 5.8 µM
Structure (SMILES): Cc1ccc(Oc2cccc(C=C3SC(=O)NC3=O)c2)cc1 [Compound 12]

remaining activity at 30 µM [1, 4]: 41% | IC50 [2]: 5.6 µM
Structure (SMILES): CC(=O)c1ccc(Sc2ccc(C)cc2)c(C=C2SC(=O)NC2=O)c1 [Compound 97]

remaining activity at 30 µM [1, 4]: 41% | IC50 [2]: 5.6 µM
Structure (SMILES): Cc1ccc(Sc2ccc(-c3cccs3)cc2C=C2SC(=O)NC2=O)cc1 [Compound 92]

remaining activity at 10 µM [1, 3]: 25% | IC50 [2]: 5.5 µM
Structure (SMILES): O=C1NC(=O)C(=Cc2cc([N+](=O)[O-])ccc2S(=O)(=O)Cc2ccccc2)S1 [Compound 78]

remaining activity at 3 µM ([1]; concentration 3 μM, read-out: Residual Enzyme Activity (%)): 14% | IC50 [2]: 4.5 µM
Structure (SMILES): O=C1NC(=O)/C(=C/c2cc([N+](=O)[O-])ccc2[S+]([O-])c2ccc(Cl)c(Cl)c2)S1 (centres unmarked) [Compound 135]

Residual Enzyme Activity (%) ([1]; concentration 30 μM): 35% | IC50 [2]: 4.3 µM
Structure (SMILES): Cc1ccc(COc2ccc([N+](=O)[O-])c(C=C3SC(=O)NC3=O)c2)cc1 [Compound 21]

Residual Enzyme Activity (%) ([1]; concentration 100 μM): 47% | IC50 [2]: 4 µM
Structure (SMILES): O=C1NC(=O)C(=Cc2ccc(Oc3ccccc3)cc2)S1 [Compound 14]

Residual Enzyme Activity (%) ([1]; concentration 30 μM): 0% | IC50 [2]: 3.7 µM
Structure (SMILES): O=C1NC(=O)C(=Cc2cc(C(=O)c3ccc(Cl)cc3)c(S(=O)(=O)c3ccc(Cl)cc3)s2)S1 [Compound 66]

remaining activity at 10 µM [1, 3]: 18% | IC50 [2]: 2.7 µM
Structure (SMILES): O=C1NC(=O)/C(=C/c2cc([N+](=O)[O-])ccc2[S+]([O-])c2ccc(Cl)cc2)S1 (centres unmarked) [Compound 68]

remaining activity at 10 µM [1, 3]: 16% | IC50 [2]: 0.48 µM
Structure (SMILES): O=C1NC(=O)C(=Cc2cc([N+](=O)[O-])ccc2S(=O)(=O)c2ccc(Cl)cc2)S1 [Compound 69]
